The values that follow come from patent US20140357655A1, “SPIROINDOLINE DERIVATIVES AS GONADOTROPIN- RELEASING HORMONE RECEPTOR ANTAGONISTS” (Bayer Intellectual Property GmbH, priority 2012, published 2014).

The target in this experiment is T1, human GnRH receptor (Homo sapiens, UniProt P30968).
T1 sequence (P30968 1-328): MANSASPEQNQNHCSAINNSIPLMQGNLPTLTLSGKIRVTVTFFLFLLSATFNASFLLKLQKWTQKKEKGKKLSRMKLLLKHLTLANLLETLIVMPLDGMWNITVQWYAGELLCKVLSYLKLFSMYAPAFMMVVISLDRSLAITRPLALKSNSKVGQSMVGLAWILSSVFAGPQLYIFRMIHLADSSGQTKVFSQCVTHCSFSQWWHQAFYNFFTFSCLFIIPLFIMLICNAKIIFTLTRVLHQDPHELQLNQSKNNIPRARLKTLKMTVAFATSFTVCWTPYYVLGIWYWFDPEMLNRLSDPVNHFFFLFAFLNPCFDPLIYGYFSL
Briefly: IP-One HTRF assay with buserelin (at EC80) stimulation. It is filed as cell-based. The note with it: CHO cells stably expressing human GnRH receptor, read-out: Potency in IP-One HTRF assay, given as IC50. The source says:
2.3. IP-One HTRF® Assay By using homogenous time-resolved fluorescence resonance energy transfer (HTRF), the generation of one component of the GnRH—R signalling cascade can be measured. After stimulation of CHO cells stably expressing human GnRH receptor (established by Prof. Thomas Gudermann, currently University of Marburg, Germany; supplied as frozen cell aliquots by Cell Culture Services, Hamburg, Germany) with the EC80 of the GnRH agonist buserelin, Gq protein-coupled receptor signalling cascade is activated resulting in PLC-dependent cleavage of PIP2 to Inositol-1,4,5-triphosphate (IP3) and Diacylglycerol. The second messenger IP3 is degraded intracellularly to myo-inositol. Inhibition of the final degradation step from Inositol-1-phosphate (IP1) to myo-inositol by addition of lithium chloride leads to accumulation of IP1 in the cells. In cell lysates, IP1 can be detected via an antibody-based HTRF detection technology, where IP1 can displace the FRET acceptor IP1-d2 from binding by Terbium-labelled anti-IP1 antibody as donor resulting in a signal decrease. Compounds were tested for their capability of inhibiting GnRH—R activation by buserelin. For all IP-One HTRF® assays reagents of Cisbio Bioassays (IP-One Tb Jumbo kit, #62IPAPEJ; Cisbio Bioassays, Bagnols sur Cèze Cedex, France) were used.
For the assay, frozen cell aliquots were thawed and a cell suspension (3.33×10^6 cells/mL) containing IP1-d2 (dilution 1:40) was prepared and incubated at 37° C. After 1 h 3 μl of the cell suspension were added to 50 nl of a 100-fold concentrated solution of the test compound in DMSO pre-dispensed in a well of a white low-volume 384-well microtiter plate (Greiner Bio-One, Frickenhausen, Germany). […] Plates were incubated for 1 h at 37° C. and 5% carbon dioxide before the cells were lysed by adding 3 μl Terbium-labelled anti-IP1 antibody (1:40) diluted in Conjugate & Lysis buffer as supplied with the kit. After an incubation for 1 h at 22° C. to enable complete cell lysis and antibody binding to free IP1 or IP1-d2, plates were measured in an HTRF reader, e.g. a RUBYstar, PHERAstar (both BMG Labtechnologies, Offenburg, Germany) or a Viewlux (PerkinElmer LAS, Rodgau-Jügesheim, Germany).
From the fluorescence emissions at 665 nm (FRET) and at 620 nm (background signal of Terbium-antibody), the ratio (emission at 665 nm divided by emission at 620 nm) was calculated and the data were normalized (reaction without test compound=0% inhibition; all other assay components except agonist=100% inhibition). On the same microtiter plate, compounds were tested at 10 different concentrations in the range of 20 μM to 1 nM (20 μM, 6.7 μM, 2.2 μM, 0.74 μM, 0.25 μM, 82 nM, 27 nM, 9.2 nM, 3.1 nM and 1 nM; dilution series prepared before the assay at the level of the 100-fold conc. stock solutions by serial 1:3 dilutions in 100% DMSO) in duplicate values for each concentration. By using an in-house software, the IC50 values were calculated by a 4 parameter fit.
As to `O=C(NCC1CC1)c1ccc2c(c1)C1(CCS(=O)(=O)CC1)C(C1CC1)N2S(=O)(=O)c1ccc(F)cc1` (single isomer, unassigned) [Example 35.2, 2-cyclopropyl-N-(cyclopropylmethyl)-1-[(4-fluorophenyl)sulfonyl]-1,2,2′,3′,5′,6′-hexahydrospiro[indole-3,4′-thiopyran]-5-carboxamide 1′,1′-dioxide], the IC50 – broadly, the concentration at which inhibition is half-maximal – was above 20000 nM.
In the case of `O=C(NCC1CCCCC1)c1ccc2c(c1)C1(CCS(=O)(=O)CC1)C(C1CC1)N2S(=O)(=O)c1ccc(F)cc1` (single isomer, unassigned) [Example 36.1, N-(cyclohexylmethyl)-2-cyclopropyl-1-[(4-fluorophenyl)sulfonyl]-1,2,2′,3′,5′,6′-hexahydrospiro[indole-3,4′-thiopyran]-5-carboxamide 1′,1′-dioxide], the IC50 was 107 nM.
The value for `O=C(NCC1CCCCC1)c1ccc2c(c1)C1(CCS(=O)(=O)CC1)C(C1CC1)N2S(=O)(=O)c1ccc(F)cc1` (single isomer, unassigned) [Example 36.2, N-(cyclohexylmethyl)-2-cyclopropyl-1-[(4-fluorophenyl)sulfonyl]-1,2,2′,3′,5′,6′-hexahydrospiro[indole-3,4′-thiopyran]-5-carboxamide 1′,1′-dioxide] was 3890 nM.
The value for `CN(C)S(=O)(=O)c1cccc(NC(=O)c2ccc3c(c2)C2(CCS(=O)(=O)CC2)C(C2CC2)N3S(=O)(=O)c2ccc(F)cc2)c1` (single isomer, unassigned) [Example 37.1, 2-cyclopropyl-N-[3-(N,N-dimethylsulfamoyl)phenyl]-1-[(4-fluorophenyl)sulfonyl]-1,2,2′,3′,5′,6′-hexahydrospiro[indole-3,4′-thiopyran]-5-carboxamide 1′,1′-dioxide] was 2130 nM.
The value for `CN(C)S(=O)(=O)c1cccc(NC(=O)c2ccc3c(c2)C2(CCS(=O)(=O)CC2)C(C2CC2)N3S(=O)(=O)c2ccc(F)cc2)c1` (single isomer, unassigned) [Example 37.2, 2-cyclopropyl-N-[3-(N,N-dimethylsulfamoyl)phenyl]-1-[(4-fluorophenyl)sulfonyl]-1,2,2′,3′,5′,6′-hexahydrospiro[indole-3,4′-thiopyran]-5-carboxamide 1′,1′-dioxide] was 44 nM.
Take `O=C(NCC1CCCC1)c1ccc2c(c1)C1(CCS(=O)(=O)CC1)C(C1CC1)N2S(=O)(=O)c1ccc(F)cc1` (single isomer, unassigned) [Example 38.1, N-(cyclopentylmethyl)-2-cyclopropyl-1-[(4-fluorophenyl)sulfonyl]-1,2,2′,3′,5′,6′-hexahydrospiro[indole-3,4′-thiopyran]-5-carboxamide 1′,1′-dioxide]: the half-inhibitory concentration (IC50) amounted to 88 nM.
Under `O=C(NCC1CCCC1)c1ccc2c(c1)C1(CCS(=O)(=O)CC1)C(C1CC1)N2S(=O)(=O)c1ccc(F)cc1` (single isomer, unassigned) [Example 38.2, N-(cyclopentylmethyl)-2-cyclopropyl-1-[(4-fluorophenyl)sulfonyl]-1,2,2′,3′,5′,6′-hexahydrospiro[indole-3,4′-thiopyran]-5-carboxamide 1′,1′-dioxide] stands 6860 nM; under `COc1cccc(S(=O)(=O)N2c3ccc(C(=O)NCc4ncccc4C(F)(F)F)cc3C3(CCS(=O)(=O)CC3)C2C2CC2)c1` (single isomer, unassigned) [Example 39.1, 2-cyclopropyl-1-[(3-methoxyphenyl)sulfonyl]-N-{[3-(trifluoromethyl)pyridin-2-yl]methyl}-1,2,2′,3′,5′,6′-hexahydrospiro[indole-3,4′-thiopyran]-5-carboxamide 1′,1′-dioxide], 40 nM.
The value for `COc1cccc(S(=O)(=O)N2c3ccc(C(=O)NCc4ncccc4C(F)(F)F)cc3C3(CCS(=O)(=O)CC3)C2C2CC2)c1` (single isomer, unassigned) [Example 39.2, 2-cyclopropyl-1-[(3-methoxyphenyl)sulfonyl]-N-{[3-(trifluoromethyl)pyridin-2-yl]methyl}-1,2,2′,3′,5′,6′-hexahydrospiro[indole-3,4′-thiopyran]-5-carboxamide 1′,1′-dioxide] was 565 nM.
Under `COc1cccc(S(=O)(=O)N2c3ccc(C(=O)NCc4ccccc4C(F)(F)F)cc3C3(CCS(=O)(=O)CC3)C2C2CC2)c1` (single isomer, unassigned) [Example 40.1, 2-cyclopropyl-1-[(3-methoxyphenyl)sulfonyl]-N-[2-(trifluoromethyl)benzyl]-1,2,2′,3′,5′,6′-hexahydrospiro[indole-3,4′-thiopyran]-5-carboxamide 1′,1′-dioxide] stands 19 nM.
For `COc1cccc(S(=O)(=O)N2c3ccc(C(=O)NCc4ccccc4C(F)(F)F)cc3C3(CCS(=O)(=O)CC3)C2C2CC2)c1` (single isomer, unassigned) [Example 40.2, 2-cyclopropyl-1-[(3-methoxyphenyl)sulfonyl]-N-[2-(trifluoromethyl)benzyl]-1,2,2′,3′,5′,6′-hexahydrospiro[indole-3,4′-thiopyran]-5-carboxamide 1′,1′-dioxide], the IC50 was 632 nM.
Under `COc1cccc(S(=O)(=O)N2c3ccc(C(=O)NCc4ncccc4Cl)cc3C3(CCS(=O)(=O)CC3)C2C2CC2)c1` (single isomer, unassigned) [Example 41.1, N-[(3-chloropyridin-2-yl)methyl]-2-cyclopropyl-1-[(3-methoxyphenyl)sulfonyl]-1,2,2′,3′,5′,6′-hexahydrospiro[indole-3,4′-thiopyran]-5-carboxamide 1′,1′-dioxide] stands 102 nM; under `COc1cccc(S(=O)(=O)N2c3ccc(C(=O)NCc4ncccc4Cl)cc3C3(CCS(=O)(=O)CC3)C2C2CC2)c1` (single isomer, unassigned) [Example 41.2, N-[(3-chloropyridin-2-yl)methyl]-2-cyclopropyl-1-[(3-methoxyphenyl)sulfonyl]-1,2,2′,3′,5′,6′-hexahydrospiro[indole-3,4′-thiopyran]-5-carboxamide 1′,1′-dioxide], 428 nM.
Under `COc1cccc(S(=O)(=O)N2c3ccc(C(=O)Nc4cccc(S(N)(=O)=O)c4)cc3C3(CCS(=O)(=O)CC3)C2C2CC2)c1` (single isomer, unassigned) [Example 42.1, 2-cyclopropyl-1-[(3-methoxyphenyl)sulfonyl]-N-(3-sulfamoylphenyl)-1,2,2′,3′,5′,6′-hexahydrospiro[indole-3,4′-thiopyran]-5-carboxamide 1′,1′-dioxide] stands 437 nM; under `COc1cccc(S(=O)(=O)N2c3ccc(C(=O)Nc4cccc(S(N)(=O)=O)c4)cc3C3(CCS(=O)(=O)CC3)C2C2CC2)c1` (single isomer, unassigned) [Example 42.2, 2-cyclopropyl-1-[(3-methoxyphenyl)sulfonyl]-N-(3-sulfamoylphenyl)-1,2,2′,3′,5′,6′-hexahydrospiro[indole-3,4′-thiopyran]-5-carboxamide 1′,1′-dioxide], 99 nM; under `COc1cccc(S(=O)(=O)N2c3ccc(C(=O)Nc4cccc(S(=O)(=O)N(C)C)c4)cc3C3(CCS(=O)(=O)CC3)C2C2CC2)c1` (single isomer, unassigned) [Example 43.1, 2-cyclopropyl-N-[3-(N,N-dimethylsulfamoyl)phenyl]-1-[(3-methoxyphenyl)sulfonyl]-1,2,2′,3′,5′,6′-hexahydrospiro[indole-3,4′-thiopyran]-5-carboxamide 1′,1′-dioxide], 344 nM.
